Assay results from BindingDB's records for doi:10.1021/jm2013826 (2012).

Target: Integrin alpha-IIb/beta-3 (Homo sapiens, UniProt P08514+P05106)
Assay: Inhibition of integrin alpha2bbeta3-mediated platelet aggregation in human TRAP-6-activated whole blood for 6 mins by impedence-based aggregometry

Sequence of Integrin alpha-IIb/beta-3 (P05106 27-788 limits assumed): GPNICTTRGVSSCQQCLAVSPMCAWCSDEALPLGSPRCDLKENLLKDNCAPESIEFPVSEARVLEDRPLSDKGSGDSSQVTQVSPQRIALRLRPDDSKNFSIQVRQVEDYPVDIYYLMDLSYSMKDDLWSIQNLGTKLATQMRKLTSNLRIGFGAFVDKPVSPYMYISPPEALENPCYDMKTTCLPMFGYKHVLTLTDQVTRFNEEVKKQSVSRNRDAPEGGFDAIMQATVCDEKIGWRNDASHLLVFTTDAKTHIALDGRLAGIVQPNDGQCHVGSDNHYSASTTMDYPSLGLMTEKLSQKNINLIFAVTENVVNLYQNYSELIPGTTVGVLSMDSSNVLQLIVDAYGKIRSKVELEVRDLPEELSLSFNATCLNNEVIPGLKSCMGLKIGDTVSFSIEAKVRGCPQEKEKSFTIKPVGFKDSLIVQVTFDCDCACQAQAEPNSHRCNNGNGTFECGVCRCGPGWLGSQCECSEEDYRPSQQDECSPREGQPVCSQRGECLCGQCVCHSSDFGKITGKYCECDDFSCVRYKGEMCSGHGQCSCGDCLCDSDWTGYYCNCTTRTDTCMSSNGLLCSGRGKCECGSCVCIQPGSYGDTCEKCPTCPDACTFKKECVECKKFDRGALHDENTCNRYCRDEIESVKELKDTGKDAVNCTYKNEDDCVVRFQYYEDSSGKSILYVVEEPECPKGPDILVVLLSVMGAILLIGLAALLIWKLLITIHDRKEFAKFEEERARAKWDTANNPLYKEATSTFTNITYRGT
Sequence of Integrin alpha-IIb/beta-3 (P08514 32-887 limits assumed): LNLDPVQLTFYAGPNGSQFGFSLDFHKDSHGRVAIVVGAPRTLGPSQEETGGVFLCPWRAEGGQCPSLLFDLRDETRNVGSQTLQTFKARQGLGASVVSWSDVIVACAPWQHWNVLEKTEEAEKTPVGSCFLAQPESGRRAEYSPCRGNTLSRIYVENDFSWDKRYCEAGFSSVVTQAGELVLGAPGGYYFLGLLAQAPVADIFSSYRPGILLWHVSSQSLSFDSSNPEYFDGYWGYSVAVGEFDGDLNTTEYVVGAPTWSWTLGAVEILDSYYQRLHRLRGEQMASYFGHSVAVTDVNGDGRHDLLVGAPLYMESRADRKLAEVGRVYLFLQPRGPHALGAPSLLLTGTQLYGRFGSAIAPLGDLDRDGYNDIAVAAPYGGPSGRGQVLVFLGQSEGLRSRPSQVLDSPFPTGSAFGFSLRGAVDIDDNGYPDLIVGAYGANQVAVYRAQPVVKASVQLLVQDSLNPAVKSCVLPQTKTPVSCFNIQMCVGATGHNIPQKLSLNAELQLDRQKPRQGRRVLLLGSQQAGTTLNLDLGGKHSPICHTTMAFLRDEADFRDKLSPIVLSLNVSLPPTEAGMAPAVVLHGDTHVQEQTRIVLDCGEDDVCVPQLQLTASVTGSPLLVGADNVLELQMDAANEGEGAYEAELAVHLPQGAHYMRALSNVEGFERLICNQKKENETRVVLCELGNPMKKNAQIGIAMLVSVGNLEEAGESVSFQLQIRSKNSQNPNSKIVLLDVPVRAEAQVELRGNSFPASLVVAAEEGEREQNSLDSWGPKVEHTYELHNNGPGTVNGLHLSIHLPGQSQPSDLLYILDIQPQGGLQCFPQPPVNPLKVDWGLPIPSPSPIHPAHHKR
Sequence of Integrin alpha-IIb/beta-3 (P08514 891-1039 limits assumed): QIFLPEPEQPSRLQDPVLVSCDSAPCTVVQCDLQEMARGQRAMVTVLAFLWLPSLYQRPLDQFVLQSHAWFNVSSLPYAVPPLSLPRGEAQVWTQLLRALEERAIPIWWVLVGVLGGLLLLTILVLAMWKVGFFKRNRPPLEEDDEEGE

Row | EC50 [nM] | Structure (SMILES)
1 | 276 | O=C(NC[C@H](NS(=O)(=O)c1ccccc1)P(=O)(O)O)c1ccc(OCCC2CCNCC2)cc1
2 | 7.8 | O=C(NC[C@H](NS(=O)(=O)c1ccccc1)[PH](=O)O)c1ccc(OCCC2CCNCC2)cc1
3 | 40.8 | COP(=O)(O)[C@H](CNC(=O)c1ccc(OCCC2CCNCC2)cc1)NS(=O)(=O)c1ccccc1
